Measured values: patent US20200056988A1, “METHOD OF DETERMINING THE EFFICACY OF ANTIMICROBIALS” (Wisconsin Alumni Research Foundation, priority 2018, published 2020)

Tested on: infection in critically ill and injured adult ICU subjects
Assay: Variation (standard deviation) of exhaled 13CO2/12CO2 breath delta value (BDV) as a marker of response to antimicrobial treatment
Type: in vivo, human
Details: single ICU subject of FIG. 15, BAL culture positive for Aspergillus fumigatus; cefuroxime days 1 through 7, cefepime added after day seven
Procedure: The study was conducted as a multi-center prospective study, at four academic research hospitals, to assess exhaled ^13CO2/^12CO2 BDV as an indicator of infection in 20 critically ill and injured adult ICU subjects. Critically ill adult ICU subjects who were not suspected of having an infection at the time of ICU admission were enrolled as study subjects.
Exhaled breath samples were collected upon subject enrollment and every four hours thereafter until the subject was discharged home, transferred to a general care unit/status, or after seven days of breath sample collection, whichever came first. Each sample was collected in four-hour intervals, calculated from the initial sample time, with a window of ±1 hour. Samples collected outside of the specified time interval were still analyzed. […]
Breath samples were shipped to a central laboratory (Isomark, LLC, Madison, Wis.) within 48 hours of final collection from each subject. The breath samples were analyzed using the Canary™ device. The ^13CO2/^12CO2 ratio of each sample was determined from direct measurement and calculated using Pee Dee Belemnite (PDB) as a standard reference: […]
where BDV is expressed as parts per mil (‰). […] The delta over baseline (DOB) was then calculated by subtracting the baseline sample from subsequent samples as described: […]

SMILES | mean variation of BDV
CO/N=C(\C(=O)N[C@@H]1C(=O)N2C(C(=O)O)=C(COC(N)=O)CS[C@H]12)c1ccco1 [cefuroxime] | 0.72 ‰
CO/N=C(\C(=O)N[C@@H]1C(=O)N2C(C(=O)[O-])=C(C[N+]3(C)CCCC3)CS[C@H]12)c1csc(N)n1 [cefepime] | 0.37 ‰
